Test results taken from PubChem BioAssay (NCI).
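Tested at 5 concentrations; 48 h exposure; 96-well plates; endpoints linearly interpolated, else capped at highest concentration. TGI: total growth inhibition.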

Assays:
Assay in all cases: NCI-60 cell line screen, 48 h
SK-MEL-28 melanoma = tested on: SK-MEL-28 melanoma
NCI-H522 lung = tested on: NCI-H522 lung
BT-549 breast = tested on: BT-549 breast
PC-3 prostate = tested on: PC-3 prostate
786-0 renal = tested on: 786-0 renal
NCI-H460 lung = tested on: NCI-H460 lung
HT29 colon = tested on: HT29 colon
OVCAR-5 ovarian = tested on: OVCAR-5 ovarian
UACC-257 melanoma = tested on: UACC-257 melanoma
OVCAR-4 ovarian = tested on: OVCAR-4 ovarian
SW-620 colon = tested on: SW-620 colon
NCI/ADR-RES ovarian = tested on: NCI/ADR-RES ovarian
MDA-MB-231 breast = tested on: MDA-MB-231 breast
A549 NSCLC = tested on: A549 NSCLC
HS 578T breast = tested on: HS 578T breast
HCC-2998 colon = tested on: HCC-2998 colon
OVCAR-8 ovarian = tested on: OVCAR-8 ovarian
K-562 leukemia = tested on: K-562 leukemia
A498 renal = tested on: A498 renal
MDA-N = tested on: MDA-N
COLO 205 colon = tested on: COLO 205 colon
SF-268 CNS = tested on: SF-268 CNS
NCI-H226 lung = tested on: NCI-H226 lung
HCT-15 colon = tested on: HCT-15 colon
SK-OV-3 ovarian = tested on: SK-OV-3 ovarian
SNB-19 CNS = tested on: SNB-19 CNS
ACHN renal = tested on: ACHN renal
SF-539 CNS = tested on: SF-539 CNS
M14 melanoma = tested on: M14 melanoma
T-47D breast = tested on: T-47D breast
CAKI-1 renal = tested on: CAKI-1 renal
LOX IMVI melanoma = tested on: LOX IMVI melanoma
MDA-MB-435 = tested on: MDA-MB-435
HOP-92 NSCLC = tested on: HOP-92 NSCLC
MOLT-4 leukemia = tested on: MOLT-4 leukemia
SK-MEL-2 melanoma = tested on: SK-MEL-2 melanoma
UACC-62 melanoma = tested on: UACC-62 melanoma
UO-31 renal = tested on: UO-31 renal
U251 CNS = tested on: U251 CNS
NCI-H23 lung = tested on: NCI-H23 lung
DU-145 prostate = tested on: DU-145 prostate
SK-MEL-5 melanoma = tested on: SK-MEL-5 melanoma
EKVX NSCLC = tested on: EKVX NSCLC
HOP-62 NSCLC = tested on: HOP-62 NSCLC
CCRF-CEM leukemia = tested on: CCRF-CEM leukemia
OVCAR-3 ovarian = tested on: OVCAR-3 ovarian
SR leukemia = tested on: SR leukemia
MCF7 breast = tested on: MCF7 breast
TK-10 renal = tested on: TK-10 renal
HL-60(TB) leukemia = tested on: HL-60(TB) leukemia
SN12C renal = tested on: SN12C renal
RXF 393 renal = tested on: RXF 393 renal
KM12 colon = tested on: KM12 colon
HCT-116 colon = tested on: HCT-116 colon
SF-295 CNS = tested on: SF-295 CNS
RPMI-8226 leukemia = tested on: RPMI-8226 leukemia
SNB-75 CNS = tested on: SNB-75 CNS
IGROV1 ovarian = tested on: IGROV1 ovarian
MALME-3M melanoma = tested on: MALME-3M melanoma

Measured: TGI

COC(=O)CC1C(COC(C)=O)OC(n2cc(C)c(=O)[nH]c2=O)C1OC(C)=O (stereo not drawn)
> 100 µM: all assays above

CC(=O)NNc1nc(C)c(C(/C=C/c2ccc([N+](=O)[O-])cc2)=N/N)s1
89.2 µM: RPMI-8226 leukemia
95.4 µM: MDA-MB-231 breast
> 100 µM: all other assays above
